Laboratory results taken from BigSolDB 2.1.

C(=C\c1ccccc1)/CN1CCN(C(c2ccccc2)c2ccccc2)CC1
solubility (mole fraction)
Conditions	288.5 K	293.5 K	298.4 K	303.3 K	308.3 K	313.2 K
in acetonitrile	0.000877	0.00105	0.00137	0.00158	0.00204	0.00273
in isopropanol	0.00064	0.000811	0.000994	0.00127	0.00165	0.00208
in n-butanol	0.00273	0.00351	0.00412	0.00499	0.00607	0.00804
in n-butyl acetate	0.0153	0.0197	0.0226	0.0272	0.0337	0.0425
